From patent publication US11117900B2 (Vertex Pharmaceuticals Incorporated, priority 2012, dated 2021)

test system: HCT116 colorectal cancer cells; experiment: Cisplatin sensitization assay (96 h MTS cell viability); type: cell-based; details: Cisplatin sensitization value;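 note: compound concentration needed to lower the IC50 of Cisplatin alone by a set fold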
Experimental: Compounds can be screened for their ability to sensitize HCT116 colorectal cancer cells to Cisplatin using a 96 h cell viability (MTS) assay. […] Compounds and Cisplatin are then both added simultaneously to the cell media in 2-fold serial dilutions from a top final concentration of 10 μM as a full matrix of concentrations in a final cell volume of 200 μl, and the cells are then incubated at 37° C. in 5% CO2. After 96 h, 40 μl of MTS reagent (Promega G358a) is added to each well and the cells are incubated for 1 h at 37° C. in 5% CO2.
Compounds with a Cisplatin sensitization value of <0.02 μM are marked with “+++.” Compounds with a Cisplatin sensitization value >0.02 μM but <0.2 μM are marked with “++.” Compounds with a Cisplatin sensitization value >0.2 μM but <5 μM are marked with “+.”

| SMILES | Cisplatin Sensitization Assay |
| --- | --- |
| Cc1ncn(-c2ccncc2NC(=O)c2c(N)nn3cc(F)cnc23)c1C [I-N-269, 2-amino-N-(4-(4,5-dimethyl-1H-imidazol-1-yl)pyridin-3-yl)-6-fluoropyrazolo[1,5-a]pyrimidine-3-carboxamide] | ++ (Compounds with a Cisplatin sensitization value >0.02 μM but <0.2 μM are marked with “++.”) |
| Nc1nn2cc(F)cnc2c1C(=O)Nc1cnccc1N1CCN2[C@@H](CCS2(=O)=O)C1 [I-N-247, (S)-2-amino-N-(4-(1,1-dioxidotetrahydro-2H-isothiazolo[2,3-a]pyrazin-5(3H)-yl)pyridin-3-yl)-6-fluoropyrazolo[1,5-a]pyrimidine-3-carboxamide] | +++ (Compounds with a Cisplatin sensitization value of <0.02 μM are marked with “+++.”) |
| Cc1nnc(N2CCN(c3ccncc3NC(=O)c3c(N)nn4cc(F)cnc34)CC2)o1 [I-N-256, 2-amino-6-fluoro-N-(4-(4-(5-methyl-1,3,4-oxadiazol-2-yl)piperazin-1-yl)pyridin-3-yl)pyrazolo[1,5-a]pyrimidine-3-carboxamide] | ++ (Compounds with a Cisplatin sensitization value >0.02 μM but <0.2 μM are marked with “++.”) |
| Nc1nn2cc(F)cnc2c1C(=O)Nc1cncc(F)c1N1CCC(C(=O)N2CC3CNCC3C2)CC1 (stereo not shown) [I-G-51, 2-amino-6-fluoro-N-(5-fluoro-4-(4-(octahydropyrrolo[3,4-c]pyrrole-2-carbonyl)piperidin-1-yl)pyridin-3-yl)pyrazolo[1,5-a]pyrimidine-3-carboxamide] | +++ (Compounds with a Cisplatin sensitization value of <0.02 μM are marked with “+++.”) |
| Nc1nn2cc(F)cnc2c1C(=O)Nc1cncc(F)c1N1CCN(S(=O)(=O)C2COC2)CC1 [I-N-201] | +++ (Compounds with a Cisplatin sensitization value of <0.02 μM are marked with “+++.”) |
| CN(C)CCN(C)C(=O)C1CCN(c2c(F)cncc2NC(=O)c2c(N)nn3cc(F)cnc23)CC1 [I-G-31, 2-amino-N-(4-(4-((2-(dimethylamino)ethyl)(methyl)carbamoyl)piperidin-1-yl)-5-fluoropyridin-3-yl)-6-fluoropyrazolo[1,5-a]pyrimidine-3-carboxamide] | +++ (Compounds with a Cisplatin sensitization value of <0.02 μM are marked with “+++.”) |
| Nc1nn2cc(Cl)cnc2c1C(=O)Nc1cnccc1N1CCC(N2CCn3ccnc3C2)CC1 [I-N-102, 2-amino-6-chloro-N-(4-(4-(5,6-dihydroimidazo[1,2-a]pyrazin-7(8H)-yl)piperidin-1-yl)pyridin-3-yl)pyrazolo[1,5-a]pyrimidine-3-carboxamide] | ++ (Compounds with a Cisplatin sensitization value >0.02 μM but <0.2 μM are marked with “++.”) |
| Nc1nn2cc(F)cnc2c1C(=O)Nc1cnccc1CN1CCCC1=O [I-C-76, 2-amino-6-fluoro-N-(4-((2-oxopyrrolidin-1-yl)methyl)pyridin-3-yl)pyrazolo[1,5-a]pyrimidine-3-carboxamide] | + (Compounds with a Cisplatin sensitization value >0.2 μM but <5 μM are marked with “+.”) |
| Cc1nn(C)cc1-c1ccncc1NC(=O)c1c(N)nn2cc(F)cnc12 [I-C-63, 2-amino-N-(4-(1,3-dimethyl-1H-pyrazol-4-yl)pyridin-3-yl)-6-fluoropyrazolo[1,5-a]pyrimidine-3-carboxamide] | +++ (Compounds with a Cisplatin sensitization value of <0.02 μM are marked with “+++.”) |
| Nc1nn2cc(Cl)cnc2c1C(=O)Nc1cnccc1C1CCN(C2COC2)CC1 [I-C-11, 2-amino-6-chloro-N-(4-(1-(oxetan-3-yl)piperidin-4-yl)pyridin-3-yl)pyrazolo[1,5-a]pyrimidine-3-carboxamide] | +++ (Compounds with a Cisplatin sensitization value of <0.02 μM are marked with “+++.”) |
| CN1CCN(C(=O)c2ccc(-c3c(F)cncc3NC(=O)c3c(N)nn4cc(F)cnc34)cc2)CC1 [I-C-43, 2-amino-6-fluoro-N-(5-fluoro-4-(4-(4-methylpiperazine-1-carbonyl)phenyl)pyridin-3-yl)pyrazolo[1,5-a]pyrimidine-3-carboxamide] | +++ (Compounds with a Cisplatin sensitization value of <0.02 μM are marked with “+++.”) |
| Nc1nn2cc(F)cnc2c1C(=O)Nc1cnccc1N1CCC2(CCNC2)CC1 [I-N-255, N-(4-(2,8-diazaspiro[4.5]decan-8-yl)pyridin-3-yl)-2-amino-6-fluoropyrazolo[1,5-a]pyrimidine-3-carboxamide] | ++ (Compounds with a Cisplatin sensitization value >0.02 μM but <0.2 μM are marked with “++.”) |
| COCCn1cncc1-c1ccncc1NC(=O)c1c(N)nn2cc(F)cnc12 [I-C-83, 2-amino-6-fluoro-N-(4-(1-(2-methoxyethyl)-1H-imidazol-5-yl)pyridin-3-yl)pyrazolo[1,5-a]pyrimidine-3-carboxamide] | ++ (Compounds with a Cisplatin sensitization value >0.02 μM but <0.2 μM are marked with “++.”) |
| CN(C)CC1(O)CCN(c2ccncc2NC(=O)c2c(N)nn3cc(Cl)cnc23)CC1 [I-N-36, 2-amino-6-chloro-N-(4-(4-((dimethylamino)methyl)-4-hydroxypiperidin-1-yl)pyridin-3-yl)pyrazolo[1,5-a]pyrimidine-3-carboxamide] | ++ (Compounds with a Cisplatin sensitization value >0.02 μM but <0.2 μM are marked with “++.”) |
| Nc1nn2cc(F)cnc2c1C(=O)Nc1cncc(F)c1N1CCN(C(=O)C2COC2)CC1 [I-N-278, 2-amino-6-fluoro-N-(5-fluoro-4-(4-(oxetane-3-carbonyl)piperazin-1-yl)pyridin-3-yl)pyrazolo[1,5-a]pyrimidine-3-carboxamide] | +++ (Compounds with a Cisplatin sensitization value of <0.02 μM are marked with “+++.”) |
| Nc1nn2cc(F)cnc2c1C(=O)Nc1cncc(C2CC2)c1N1CCN([C@H]2CCOC2)CC1 [I-N-120, (S)-2-amino-N-(5-cyclopropyl-4-(4-(tetrahydrofuran-3-yl)piperazin-1-yl)pyridin-3-yl)-6-fluoropyrazolo[1,5-a]pyrimidine-3-carboxamide] | +++ (Compounds with a Cisplatin sensitization value of <0.02 μM are marked with “+++.”) |
| CN1CCN(C(=O)C2CCN(c3c(F)cncc3NC(=O)c3c(N)nn4cc(F)cnc34)CC2)C2CC21 (stereo not shown) [I-G-65, 2-amino-6-fluoro-N-(5-fluoro-4-(4-(5-methyl-2,5-diazabicyclo[4.1.0]heptane-2-carbonyl)piperidin-1-yl)pyridin-3-yl)pyrazolo[1,5-a]pyrimidine-3-carboxamide] | +++ (Compounds with a Cisplatin sensitization value of <0.02 μM are marked with “+++.”) |
| Cn1cncc1-c1c(F)cncc1NC(=O)c1c(N)nn2cc(F)cnc12 [I-C-79, 2-amino-6-fluoro-N-(5-fluoro-4-(1-methyl-1H-imidazol-5-yl)pyridin-3-yl)pyrazolo[1,5-a]pyrimidine-3-carboxamide] | +++ (Compounds with a Cisplatin sensitization value of <0.02 μM are marked with “+++.”) |
| Cc1ncnn1-c1c(F)cncc1NC(=O)c1c(N)nn2cc(F)cnc12 [I-N-242, 2-amino-6-fluoro-N-(5-fluoro-4-(5-methyl-1H-1,2,4-triazol-1-yl)pyridin-3-yl)pyrazolo[1,5-a]pyrimidine-3-carboxamide] | + (Compounds with a Cisplatin sensitization value >0.2 μM but <5 μM are marked with “+.”) |
| Cc1ccn(-c2ccncc2NC(=O)c2c(N)nn3cc(F)cnc23)n1 [I-N-225, 2-amino-6-fluoro-N-(4-(3-methyl-1H-pyrazol-1-yl)pyridin-3-yl)pyrazolo[1,5-a]pyrimidine-3-carboxamide] | ++ (Compounds with a Cisplatin sensitization value >0.02 μM but <0.2 μM are marked with “++.”) |
| Cc1nnc(C2CCN(c3ccncc3NC(=O)c3c(N)nn4cc(F)cnc34)CC2)o1 [I-N-265, 2-amino-6-fluoro-N-(4-(4-(5-methyl-1,3,4-oxadiazol-2-yl)piperidin-1-yl)pyridin-3-yl)pyrazolo[1,5-a]pyrimidine-3-carboxamide] | ++ (Compounds with a Cisplatin sensitization value >0.02 μM but <0.2 μM are marked with “++.”) |
| Nc1nn2cc(F)cnc2c1C(=O)Nc1cncc(F)c1N1CCN(C(=O)C2CN3CCC2CC3)CC1 (stereo not shown) [I-N-130, 2-amino-6-fluoro-N-(5-fluoro-4-(4-(quinuclidine-3-carbonyl)piperazin-1-yl)pyridin-3-yl)pyrazolo[1,5-a]pyrimidine-3-carboxamide] | ++ (Compounds with a Cisplatin sensitization value >0.02 μM but <0.2 μM are marked with “++.”) |
| Nc1nn2cc(F)cnc2c1C(=O)Nc1cnccc1N1CCN(S(=O)(=O)C2COC2)CC1 [I-N-195, 2-amino-6-fluoro-N-(4-(4-(oxetan-3-ylsulfonyl)piperazin-1-yl)pyridin-3-yl)pyrazolo[1,5-a]pyrimidine-3-carboxamide] | +++ (Compounds with a Cisplatin sensitization value of <0.02 μM are marked with “+++.”) |
| CC1CN(C)CCN1c1ccncc1NC(=O)c1c(N)nn2cc(Cl)cnc12 (stereo not shown) [I-N-72, 2-amino-6-chloro-N-(4-(2,4-dimethylpiperazin-1-yl)pyridin-3-yl)pyrazolo[1,5-a]pyrimidine-3-carboxamide] | +++ (Compounds with a Cisplatin sensitization value of <0.02 μM are marked with “+++.”) |
| Nc1nn2cc(F)cnc2c1C(=O)Nc1cnccc1N1CCC(C(=O)N2CC(F)C2)CC1 [I-G-82, 2-amino-6-fluoro-N-(4-(4-(3-fluoroazetidine-1-carbonyl)piperidin-1-yl)pyridin-3-yl)pyrazolo[1,5-a]pyrimidine-3-carboxamide] | +++ (Compounds with a Cisplatin sensitization value of <0.02 μM are marked with “+++.”) |
